In US20240228504A1, “SUBSTITUTED TRICYCLIC AMIDES, ANALOGUES THEREOF, AND METHODS USING SAME” (Arbutus Biopharma Corporation, priority 2020, published 2024):
pEC50: −log10 of the molar value.

Each compound was assayed on HBV rcDNA in HepDE19 cells (assay: HepDE19 assay with bDNA quantitation of HBV rcDNA). Conditions: HepDE19 assay, inhibition of rcDNA formation, bDNA quantitation; read-out: DE-19bDNA EC50.
Type: cell-based, hepatitis B virus

Compared with `CC(O)c1cc(F)cc2[nH]c(C(=O)N(C)[C@@H]3COCc4[nH]c(=O)c5cc(F)c(F)cc5c43)cc12` (single isomer, unassigned) [Compound 353], `CN(C(=O)c1cc2c(F)cc(F)cc2[nH]1)C1CNCc2[nH]c(=O)c3cc(F)c(F)cc3c21` (single isomer, unassigned) [Compound 118, N-(8,9-Difluoro-6-oxo-1,2,3,4,5,6-hexahydrobenzo[c][1,7]naphthyridin-1-yl)-4,6-difluoro-N-methyl-1H-indole-2-carboxamide] is 1.30 log units lower in pEC50: 7.22 for the first, 5.92 for the second. The first is the more potent here.

Going from `CN(C(=O)c1cc(F)c(Cl)c(F)c1)C1COCc2[nH]c(=O)c3cc(F)ccc3c21` (single isomer, unassigned) [Compound 174, 4-Chloro-3,5-difluoro-N-(8-fluoro-6-oxo-2,4,5,6-tetrahydro-1H-pyrano[3,4-c]isoquinolin-1-yl)-N-methylbenzamide] to `CN(C(=O)c1cc2cccc(F)c2[nH]1)C1COCc2[nH]c(=O)c3cc(F)ccc3c21` (single isomer, unassigned) [Compound 34, 7-Fluoro-N-(8-fluoro-6-oxo-1,4,5,6-tetrahydro-2H-pyrano[3,4-c]isoquinolin-1-yl)-N-methyl-1H-indole-2-carboxamide], the pEC50 rises from 5.29 to 7.52 (2.23 log units).

Going from `CN(C(=O)c1cc2c(F)cccn2c1)C1CS(=O)(=O)Cc2[nH]c(=O)c3cc(F)c(F)cc3c21` (single isomer, unassigned) [Compound 152, N-(8,9-Difluoro-3,3-dioxido-6-oxo-2,4,5,6-tetrahydro-1H-thiopyrano[3,4-c]isoquinolin-1-yl)-8-fluoro-N-methylindolizine-2-carboxamide] to `CN(C(=O)c1cc2ccccn2c1)C1COCc2[nH]c(=O)c3cc(F)c(F)cc3c21` (single isomer, unassigned) [Compound 11, N-(8,9-Difluoro-6-oxo-1,4,5,6-tetrahydro-2H-pyrano[3,4-c]isoquinolin-1-yl)-N-methylindolizine-2-carboxamide], the pEC50 falls from 6.14 to 5.28 (0.86 log units). The first is the more potent here.

Compared with `CN(C(=O)c1cc2ccccc2[nH]1)C1CCCc2[nH]c(=O)c3cc(F)ccc3c21` (single isomer, unassigned) [Compound 476, N-(8-Fluoro-6-oxo-1,2,3,4,5,6-hexahydrophenanthridin-1-yl)-N-methyl-1H-indole-2-carboxamide], `CN(C(=O)c1cc2ccccc2[nH]1)C1CN(CCO)Cc2[nH]c(=O)c3cc(F)ccc3c21` (single isomer, unassigned) [Compound 80, N-(8-Fluoro-3-(2-hydroxyethyl)-6-oxo-1,2,3,4,5,6-hexahydrobenzo[c][1,7]naphthyridin-1-yl)-N-methyl-1H-indole-2-carboxamide] is 2.50 log units lower in pEC50: 7.70 for the first, 5.20 for the second. The first is the more potent here.

Same assay, conditions: Hepatitis B virus, HepDE19, HepDE19 assay, inhibition of rcDNA formation, bDNA quantitation; read-out: DE-19bDNA EC50

First: CN(C(=O)c1cc2c(NS(C)(=O)=O)cc(F)cc2[nH]1)[C@@H]1COCc2[nH]c(=O)c3cc(F)c(F)cc3c21 [Compound 362, (S)-N-(8,9-Difluoro-6-oxo-1,4,5,6-tetrahydro-2H-pyrano[3,4-c]isoquinolin-1-yl)-6-fluoro-N-methyl-4-(methylsulfonamido)-1H-indole-2-carboxamide]
Second: CN(C(=O)c1cc2cc(F)c(F)cc2[nH]1)[C@@H]1COCc2c1c1cc(F)c(F)cc1c(=O)n2C [Compound 240, (S)-N-(8,9-Difluoro-5-methyl-6-oxo-1,4,5,6-tetrahydro-2H-pyrano[3,4-c]isoquinolin-1-yl)-5,6-difluoro-N-methyl-1H-indole-2-carboxamide]
The pEC50 of the first is 3.15 log units lower: 4.85 for the first, 8.00 for the second.

Compared with `CN(C(=O)C1Nc2ccccc2C1(C)C)C1COCc2[nH]c(=O)c3cc(F)c(F)cc3c21` (stereo not drawn) [Compound 56, N-(8,9-Difluoro-6-oxo-1,4,5,6-tetrahydro-2H-pyrano[3,4-c]isoquinolin-1-yl)-N,3,3-trimethylindoline-2-carboxamide], `CN(C(=O)c1nc2ccccc2s1)[C@@H]1COCc2[nH]c(=O)c3cc(F)c(F)cc3c21` [Compound 123, (S)-N-(8,9-Difluoro-6-oxo-1,4,5,6-tetrahydro-2H-pyrano[3,4-c]isoquinolin-1-yl)-N-methylbenzo[d]thiazole-2-carboxamide] is 1.08 log units higher in pEC50: 4.74 for the first, 5.82 for the second. The second is the more potent here.
